In one data set the test system is ip P388 leukemia. The conditions noted are these: ip.
A further data set has as its system iv L1210 leukemia. Particulars: iv L1210 (10^6 cells).
Another data set concerns ip L1210 leukemia. As to the kind of experiment: ip-implanted L1210 leukemia in mice.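 Also: each mouse received 10^6 L1210 cells intraperitoneally, with drug treatment also given by the i.p. route.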 Particulars: ip L1210 (10^6 cells); drug i.p. Days 1 and 5 at maximally tolerated dose.
The nature of data set [1]: ip-implanted L1210 leukemia in mice.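 Also: each mouse received 10^6 L1210 cells intraperitoneally, with drug treatment also given by the i.p. route.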 The conditions noted are these: mouse, in vivo, ip.
Description: (§1) For in vivo studies L1210 cells were implanted i.p. (10^6 per mouse)
(§2) and drugs were administered i.p. on Days 1 and 5. Increase in lifespan
(§3) (ILS) was based on median survival time of groups of 6 mice treated at th
maximally tolerated dose of the drugs.
In a further data set the test system is L1210 leukemia cells. In words: cells. The format is cell-based, mouse. Particulars: Mus musculus, L1210, read-out: In Vitro Activity IC50. On the procedure:
Cells were exposed continuously upon cloning into medium containing 0.2 percent Noble agar. After incubation at 37° C. in a CO2 incubator for 3 days, colonies were stained with viable cell specific formazan stain and, 24 hours later, were enumerated by a colony counter (Biotran II, New Brunswick Scientific Co., Edison, N.J.) adjusted to identify colonies of more than 50 cells. The concentration which reduced cloning efficiency by 50 percent IC50) was determined by interpolation.

A further data set deals with P388/Doxorubicin. As to the kind of experiment: ip P388/Doxorubicin multidrug resistant subline in mice. The conditions noted are these: for ILS / NCK (net tumor cell kill): P388/Doxorubicin, ip, Days 1 and 5; for sensitivity / resistance of subline: P388/doxorubicin in mice.
Another data set relates to P388/Mitoxantrone. As to the kind of experiment: ip P388/Mitoxantrone multidrug resistant subline in mice. The conditions noted are these: for ILS / NCK (net tumor cell kill): P388/Mitoxantrone, ip, Days 1 and 5.
The mark [2] stands for this setting: ip P388 (10^6 cells), 29 mg/kg, Days 1 & 5.

SMILES strings stand for the structures. Structures can show the parent of a compound that is named as a salt. Where two headings read alike, the source gives them in different places.

Description for P388/Doxorubicin: (§4) Increase in lifespan (ILS) is based on median survival time of groups of 6 mice. Net tumor cell kill (NCK) is calculated from median survival time by standard methods, since survival time is a linear function of the log tumor cell burden.
(§5) For the leukemias, these tumors are maintained in DBA/2 mice. […] The leukemias and the M5076 sarcoma are serially transplanted i.p. as ascites cell suspensions while the B16 melanoma lines and the colon carcinoma 26 are serially transplanted as s.c. solid tumors.
(§6) For therapeutic trials, tumors are aseptically removed from donor mice and prepared as suspensions for implantation ip into test animals. […] The test animals for the other tumor models are syngeneic female F1 hybrid B6D2F1 mice (C57B1/6 x DBA/2). The inoculum level varies with the type of tumor: P388 leukemia is inoculated at 10^6 cells per mouse, L1210 leukemia at 10^5 or 10^6 cells per mouse, M5076 sarcoma at 5×10^6 cells per mouse. […] After tumor inoculation, mice randomized to treatment groups comprised of 6-8 mice each. In each experiment, there are three groups of untreated control mice. Drugs are dissolved or suspended in appropriate aqueous vehicles and given by a variety of routes and schedules of administration over a range of dose levels. Animals are housed in shoebox cages and are monitored daily for mortality for 30 (L1210), 45 (P388) or 60 (B16, M5076, colon 26) days.
Description for P388/Mitoxantrone: as §4, §5, §6
Description for ip L1210 leukemia: as §1, §2, §3
maximally tolerated dose of the drugs.
Description for ip P388 leukemia: as §4
Animals were implanted ip with 10^6 cells. Increase in lifespan (ILS) is based on median survival time of groups of 6 mice relative to untreated controls. Long-term survivors were tumor-free on Day 45.
Tumors used in these studies--P388 leukemia and its doxorbicin--and mitoxanrone-resistant sublines, L1210 leukemia, B16 melanoma, B16 melanoma/F10 subline, M5076 sarcoma and colon carcinoma 26--are maintained by serial transplantation in syngeneic strains of mice. For the leukemias, these tumors are maintained in DBA/2 mice. The M5076 sarcoma, the B16 melanoma and its F10 subline are maintained in C57B1/6 mice and the colon sarcinoma 26 is maintained in BALB/c mice. The leukemias and the M5076 sarcoma are serially transplanted i.p. as ascites cell suspensions while the B16 melanoma lines and the colon carcinoma 26 are serially transplanted as s.c. solid tumors.
For therapeutic trials, tumors are aseptically removed from donor mice and prepared as suspensions for implantation ip into test animals. The test animals for the colon carcinoma 26 are female BALB/c mice (20-25 gm). The test animals for the other tumor models are syngeneic female F1 hybrid B6D2F1 mice (C57B1/6 x DBA/2). The inoculum level varies with the type of tumor: P388 leukemia is inoculated at 10^6 cells per mouse, L1210 leukemia at 10^5 or 10^6 cells per mouse, M5076 sarcoma at 5×10^6 cells per mouse. For implantation of the B16 melanoma lines and the colon carcinoma 26, s.c. tumors from donor mice are minced and homogenized in loose fitting teflon glass homogenizer to give a tumor brei. The inoculum levels are 0.5 ml of a 10 percent (w:v) brei of the B16 melanoma lines and 0.5 ml of a 5 percent (w:v) brei of colon carcinoma 26. After tumor inoculation, mice randomized to treatment groups comprised of 6-8 mice each. In each experiment, there are three groups of untreated control mice. Drugs are dissolved or suspended in appropriate aqueous vehicles and given by a variety of routes and schedules of administration over a range of dose levels. Animals are housed in shoebox cages and are monitored daily for mortality for 30 (L1210), 45 (P388) or 60 (B16, M5076, colon 26) days.

A word on the ILS: it is how much longer treated animals lived than controls. For the compound `CCC1(O)C(=O)OCc2c1cc1n(c2=O)Cc2cc3c(CN(C)C)c(O)ccc3nc2-1` (racemic) [Compound No. 1RS, (20 R,S)-9-Dimethylaminomethyl-10-hydroxycamptothecin Acetate Salt], the ILS with ip P388 leukemia (ip P388 (10^6 cells), 3.6 mg/kg, Days 1 & 5) amounted to 30%; in the data set on ip P388 leukemia (ip P388 (10^6 cells), 7.2 mg/kg, Days 1 & 5), 80%; in the data set on ip P388 leukemia (ip P388 (10^6 cells), 14 mg/kg, Days 1 & 5), 135%; in the data set on ip P388 leukemia (setting [2]) it was 165%. Further, in the data set with ip P388 leukemia (setting [2]), the “Long-term Survivors (tumor-free on Day 45)” value was 1/6.
Turning to `CC[C@@]1(O)C(=O)OCc2c1cc1n(c2=O)Cc2cc3c(CN(C)C)c(O)ccc3nc2-1` [1S (dihydrochloride salt)], the ILS in the data set with iv L1210 leukemia (5.4 mg/kg, Days 1 & 5, route ip in table head (iv), Dihydrochloride Salt) turned out to be 50%; with iv L1210 leukemia (9 mg/kg, Days 1 & 5, route ip in table head (iv), Dihydrochloride Salt), 83%; with iv L1210 leukemia (15 mg/kg, Days 1 & 5, route ip in table head (iv in b213), Dihydrochloride Salt) it was 133%; in the data set with iv L1210 leukemia (15 mg/kg, Days 1 & 5, route ip in table head (iv in b213), listed as dihydrochloride, Dihydrochloride Salt), 133%.
Consider `CC[C@@]1(O)C(=O)OCc2c1cc1n(c2=O)Cc2cc3c(CN(C)C)c(O)ccc3nc2-1` [1S (hydrochloride salt)], for which the ILS was 50% in the data set with iv L1210 leukemia (3.2 mg/kg, Days 1 & 5, route ip in table head (iv)); 92% with iv L1210 leukemia (5.4 mg/kg, Days 1 & 5, route ip in table head (iv), Monohydrochloride Salt); 125% in the data set on iv L1210 leukemia (9 mg/kg, Days 1 & 5, route ip in table head (iv), Monohydrochloride Salt); 175% in the data set with iv L1210 leukemia (15 mg/kg, Days 1 & 5, route ip in table head (iv in b213), Monohydrochloride Salt); 175% in the data set with iv L1210 leukemia (15 mg/kg, Days 1 & 5, route ip in table head (iv in b213), listed as hydrochloride, Monohydrochloride Salt); “toxic” in the data set with iv L1210 leukemia (25 mg/kg, Days 1 & 5, route ip in table head (iv)).
Usually IC50 stands for the point on the concentration scale where inhibition reaches its midpoint. Regarding `CC[C@@]1(O)C(=O)OCc2c1cc1n(c2=O)Cc2cc3c(C=O)c(O)ccc3nc2-1` [2S, (20 S) 9-Formyl-10-hydroxycamptothecin], in the data set with ip L1210 leukemia, the “In Vivo Antitumor Activity ILS (increase in lifespan)” value is reported as 75%. The compound also came in with an MTD in data set [1] of 42 mg/kg. Besides, in the data set on L1210 leukemia cells, the IC50 was determined as 260 nM.
As for `CC[C@@]1(O)C(=O)OCc2c1cc1n(c2=O)Cc2cc3c(C[N+](C)(C)C)c(O)ccc3nc2-1` [3S, (20 S) 9-Trimethylammoniummethyl-10-hydroxycamptothecin Methanesulfonate Salt], the “In Vivo Antitumor Activity ILS (increase in lifespan)” value with ip L1210 leukemia is above 200%. In data set [1], this compound displayed an MTD of 42 mg/kg. For the same compound, in the data set on L1210 leukemia cells, the IC50 came to 150 nM.
As for `CC[C@@]1(O)C(=O)OCc2c1cc1n(c2=O)Cc2cc3c(CNCCO)c(O)ccc3nc2-1` [4S, (20 S) 9-(2'-Hydroxyethylamino) methyl-10-hydroxycamptothecin Acetate Salt], the “In Vivo Antitumor Activity ILS (increase in lifespan)” value with ip L1210 leukemia came to 75%. Moreover, in data set [1], the MTD is 42 mg/kg. In the data set with L1210 leukemia cells, the IC50 worked out at 250 nM.
Consider `CC[C@@]1(O)C(=O)OCc2c1cc1n(c2=O)Cc2cc3c(CN4CCOCC4)c(O)ccc3nc2-1` [5S], for which the “In Vivo Antitumor Activity ILS (increase in lifespan)” value in the data set on ip L1210 leukemia turned out to be 83%. This compound also registered an MTD in data set [1] of 100 mg/kg. Moreover, in the data set on L1210 leukemia cells, the IC50 is 370 nM.
Take `CC[C@@]1(O)C(=O)OCc2c1cc1n(c2=O)Cc2cc3c(CN4CCN(C)CC4)c(O)ccc3nc2-1` [6S]: in the data set with ip L1210 leukemia, the “In Vivo Antitumor Activity ILS (increase in lifespan)” value is reported as above 200%. The compound further returned an MTD in data set [1] of 75 mg/kg. Besides, the IC50 in the data set with L1210 leukemia cells was 72 nM.
The corresponding values for `CC[C@@]1(O)C(=O)OCc2c1cc1n(c2=O)Cc2cc3c(CN4CCC(N5CCCCC5)CC4)c(O)ccc3nc2-1` [7S] are 44%, above 42 mg/kg and 270 nM.
Consider `CC[C@@]1(O)C(=O)OCc2c1cc1n(c2=O)Cc2cc3c(CNC4CC4)c(O)ccc3nc2-1` [8S], for which the “In Vivo Antitumor Activity ILS (increase in lifespan)” value in the data set with ip L1210 leukemia came to 131%. The compound further displayed an MTD in data set [1] of 25 mg/kg. In addition, in the data set on L1210 leukemia cells, the IC50 turned out to be 130 nM.
As for `CC[C@@]1(O)C(=O)OCc2c1cc1n(c2=O)Cc2cc3c(COCCN(C)C)c(O)ccc3nc2-1` [13S, (20 S) 9-N,N-Dimethylaminoethyloxymethyl-10-hydroxycamptothecin Hydrochloride Salt], the “In Vivo Antitumor Activity ILS (increase in lifespan)” value in the data set with ip L1210 leukemia is 188%. Also, the MTD in data set [1] turned out to be 42 mg/kg.
As to `CC[C@@]1(O)C(=O)OCc2c1cc1n(c2=O)Cc2cc3cc(C=O)ccc3nc2-1` [19S, (20S) 10-Formylcamptothecin], the IC50 in the data set with L1210 leukemia cells is 62 nM.
Consider `COc1cccc2c1C(=O)c1c(O)c3c(c(O)c1C2=O)C[C@@](O)(C(=O)CO)C[C@@H]3O[C@H]1C[C@H](N)[C@H](O)[C@H](C)O1` [Doxorubicin], for which the ILS in the data set with P388/Doxorubicin (1.2 mg/kg) amounted to 19%; in the data set with P388/Doxorubicin (1.9 mg/kg), 24%; with P388/Doxorubicin (3.2 mg/kg) it was 24%; with P388/Doxorubicin (5.4 mg/kg) it was 19%; with P388/Doxorubicin (9 mg/kg), 14%; with ip P388 leukemia (P388, 1.2 mg/kg, Days 1 and 5) it was 117%. The ILS in the data set on ip P388 leukemia (P388, 1.9 mg/kg, Days 1 and 5) was 167%; in the data set on ip P388 leukemia (P388, 3.2 mg/kg, Days 1 and 5) it was 172%; in the data set with ip P388 leukemia (P388, 5.4 mg/kg, Days 1 and 5), 156%; with ip P388 leukemia (P388, 9 mg/kg, Days 1 and 5), 233%; with P388/Mitoxantrone (1.2 mg/kg), 0%; in the data set on P388/Mitoxantrone (1.9 mg/kg) it was 0%. Also, the ILS in the data set on P388/Mitoxantrone (3.2 mg/kg) amounted to 0%; in the data set on P388/Mitoxantrone (5.4 mg/kg), 4%; in the data set with P388/Mitoxantrone (9 mg/kg), 7%. The “NCK (net tumor cell kill)” value in the data set on P388/Doxorubicin (1.2 mg/kg) is recorded as 0 log; with P388/Doxorubicin (1.9 mg/kg) it was 0 log; with P388/Doxorubicin (3.2 mg/kg) it was 0 log; in the data set on P388/Doxorubicin (5.4 mg/kg) it was 0 log; in the data set with P388/Doxorubicin (9 mg/kg) it was 0 log; in the data set with ip P388 leukemia (P388, 1.2 mg/kg, Days 1 and 5), 3.0 log. The “NCK (net tumor cell kill)” value turned out to be 5.1 log with ip P388 leukemia (P388, 1.9 mg/kg, Days 1 and 5); 5.3 log with ip P388 leukemia (P388, 3.2 mg/kg, Days 1 and 5); 4.6 log in the data set on ip P388 leukemia (P388, 5.4 mg/kg, Days 1 and 5); 6.5 log in the data set with ip P388 leukemia (P388, 9 mg/kg, Days 1 and 5); 0 log in the data set on P388/Mitoxantrone (1.2 mg/kg); 0 log in the data set with P388/Mitoxantrone (1.9 mg/kg). The “NCK (net tumor cell kill)” value in the data set on P388/Mitoxantrone (3.2 mg/kg), in the data set with P388/Mitoxantrone (5.4 mg/kg) and with P388/Mitoxantrone (9 mg/kg) was 0 log each time. Besides, the “sensitivity / resistance of subline” value with P388/Doxorubicin and with P388/Mitoxantrone (P388/mitoxantrone in mice) was “expected resistance” throughout.
With `CO[C@@]12[C@H](COC(N)=O)C3=C(C(=O)C(C)=C(N)C3=O)N1C[C@@H]1N[C@@H]12` [Mitomycin C], the ILS in the data set on P388/Doxorubicin (1.0 mg/kg) amounted to 29%; in the data set with P388/Doxorubicin (1.6 mg/kg), 48%; in the data set on P388/Doxorubicin (2.7 mg/kg) it was 52%; in the data set with P388/Doxorubicin (4.5 mg/kg), 62%; in the data set on P388/Doxorubicin (7.5 mg/kg) it was 52%; with ip P388 leukemia (P388, 1.0 mg/kg, Days 1 and 5), 83%. For the same compound, the ILS in the data set on ip P388 leukemia (P388, 1.6 mg/kg, Days 1 and 5) is given as 106%; in the data set with ip P388 leukemia (P388, 2.7 mg/kg, Days 1 and 5), 128%; in the data set with ip P388 leukemia (P388, 4.5 mg/kg, Days 1 and 5) it was 156%; in the data set on ip P388 leukemia (P388, 7.5 mg/kg, Days 1 and 5), 178%; in the data set on P388/Mitoxantrone (1.0 mg/kg) it was 14%; with P388/Mitoxantrone (1.6 mg/kg) it was 29%. The ILS with P388/Mitoxantrone (2.7 mg/kg) came to 54%; in the data set on P388/Mitoxantrone (4.5 mg/kg), 136%; in the data set on P388/Mitoxantrone (7.5 mg/kg), 104%. Further, the “NCK (net tumor cell kill)” value is reported as 0 log in the data set on P388/Doxorubicin (1.0 mg/kg); 0.3 log in the data set with P388/Doxorubicin (1.6 mg/kg); 0.5 log with P388/Doxorubicin (2.7 mg/kg); 1.0 log in the data set with P388/Doxorubicin (4.5 mg/kg); 0.5 log in the data set with P388/Doxorubicin (7.5 mg/kg); 1.7 log in the data set with ip P388 leukemia (P388, 1.0 mg/kg, Days 1 and 5). Further, the “NCK (net tumor cell kill)” value with ip P388 leukemia (P388, 1.6 mg/kg, Days 1 and 5) is recorded as 2.6 log; in the data set on ip P388 leukemia (P388, 2.7 mg/kg, Days 1 and 5), 3.5 log; in the data set on ip P388 leukemia (P388, 4.5 mg/kg, Days 1 and 5) it was 4.6 log; in the data set on ip P388 leukemia (P388, 7.5 mg/kg, Days 1 and 5), 5.5 log; in the data set with P388/Mitoxantrone (1.0 mg/kg), 0 log; with P388/Mitoxantrone (1.6 mg/kg) it was 0 log. In addition, the “NCK (net tumor cell kill)” value in the data set with P388/Mitoxantrone (2.7 mg/kg) was found to be 1.8 log; in the data set on P388/Mitoxantrone (4.5 mg/kg), 6.5 log; in the data set with P388/Mitoxantrone (7.5 mg/kg), 5.5 log. Besides, in the data set with P388/Doxorubicin, the “sensitivity / resistance of subline” value is “resistant”.

The values are drawn from US5004758A, “Water soluble camptothecin analogs useful for inhibiting the growth of animal tumor cells” (priority 1988, dated 1991).
